In ChEMBL document CHEMBL5506043, “A β-Carboline Derivate PAD4 Inhibitor Reshapes Neutrophil Phenotype and Improves the Tumor Immune Microenvironment against Triple-Negative Breast Cancer” (J Med Chem, 2024):
Counter-ions that a name gives are not always drawn. The source made the active and inactive calls. The calls are words filed in the database; no cut-off is given here.

Key:
[1] = molecular target: T1, Protein-arginine deiminase type-3 (Homo sapiens) (UniProt Q9ULW8); assay: Inhibition of 6His-tagged recombinant human PAD3 expressed in Escherichia coli BL21-DE3 pLysS cells using N-benzoylated arginine ethyl ester hydrochloride as substrate assessed as ratio of Kinact/Ki preincubated for 30 mins followed by substrate addition and measured after 15 mins by […] assay; conditions: time 45.0 min
T1 sequence (whole entry): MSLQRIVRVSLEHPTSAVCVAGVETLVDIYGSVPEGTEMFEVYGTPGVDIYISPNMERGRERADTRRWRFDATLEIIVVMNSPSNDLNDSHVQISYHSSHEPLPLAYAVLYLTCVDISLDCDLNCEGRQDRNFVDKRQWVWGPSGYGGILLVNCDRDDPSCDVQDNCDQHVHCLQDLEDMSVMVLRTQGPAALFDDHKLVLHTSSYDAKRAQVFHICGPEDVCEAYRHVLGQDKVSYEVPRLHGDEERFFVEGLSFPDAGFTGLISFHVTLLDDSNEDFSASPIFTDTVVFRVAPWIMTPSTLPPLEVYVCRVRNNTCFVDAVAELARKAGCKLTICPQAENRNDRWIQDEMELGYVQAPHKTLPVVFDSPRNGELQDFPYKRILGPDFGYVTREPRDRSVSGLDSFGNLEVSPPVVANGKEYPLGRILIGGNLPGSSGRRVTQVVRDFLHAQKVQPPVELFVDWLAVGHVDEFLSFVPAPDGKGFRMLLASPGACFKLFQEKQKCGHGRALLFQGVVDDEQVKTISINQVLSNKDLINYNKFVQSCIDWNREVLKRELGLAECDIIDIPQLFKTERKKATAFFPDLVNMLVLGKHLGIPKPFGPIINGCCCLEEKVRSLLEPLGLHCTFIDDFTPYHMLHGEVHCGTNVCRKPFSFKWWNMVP

[2] = test system: 4T1; assay: Antiproliferative activity against mouse 4T1 cells assessed as inhibition of cell growth incubated for 48 hrs by MTT assay; type: functional, cell-based; conditions: 4T1, 48 h
[3] = AUC (0 to infinity) in male Sprague-Dawley rat at 3.5 mg/kg, iv by LC-MS/MS analysis; type: ADME, organism-based; conditions: in vivo
[4] = molecular target: Protein-arginine deiminase type-2 (Homo sapiens, UniProt Q9Y2J8); assay: Inhibition of PAD2 (unknown origin) using Nalpha-benzoyl-L-arginine ethyl ester as substrate preincubated for 60 mins followed by substrate addition and measured after 90 mins by colorimetric analysis
Chain of Protein-arginine deiminase type-2 (Q9Y2J8 whole entry): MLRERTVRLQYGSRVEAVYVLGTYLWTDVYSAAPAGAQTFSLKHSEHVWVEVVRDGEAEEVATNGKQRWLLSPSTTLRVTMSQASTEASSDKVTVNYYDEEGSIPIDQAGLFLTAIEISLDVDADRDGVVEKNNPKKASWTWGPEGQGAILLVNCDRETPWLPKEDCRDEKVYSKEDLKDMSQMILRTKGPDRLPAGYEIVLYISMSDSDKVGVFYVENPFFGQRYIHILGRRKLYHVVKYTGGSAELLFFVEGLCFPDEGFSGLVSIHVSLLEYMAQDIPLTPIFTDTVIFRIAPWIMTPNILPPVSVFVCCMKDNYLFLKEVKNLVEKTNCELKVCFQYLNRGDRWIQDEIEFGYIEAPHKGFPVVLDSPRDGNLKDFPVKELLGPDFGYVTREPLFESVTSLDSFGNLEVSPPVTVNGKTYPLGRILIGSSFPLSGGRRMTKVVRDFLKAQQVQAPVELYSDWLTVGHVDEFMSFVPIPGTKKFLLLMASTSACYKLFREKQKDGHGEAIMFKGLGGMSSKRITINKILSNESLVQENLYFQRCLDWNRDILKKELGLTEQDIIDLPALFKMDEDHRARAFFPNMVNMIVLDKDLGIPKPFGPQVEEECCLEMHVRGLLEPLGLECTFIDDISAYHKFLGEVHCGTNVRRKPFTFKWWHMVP

[5] = Toxicity in female BALB/c mouse implanted with mouse orthotopic 4T1-Luc cells assessed as reduction in body weight at 10 mg/kg, iv administered via tail vein every 2 days for 9 times for 17 days and measured every 2 days; type: organism-based; conditions: in vivo, 408 h, time 17 day
[6] = test system: MDA-MB-468; assay: Antiproliferative activity against human MDA-MB-468 cells assessed as inhibition of cell growth incubated for 48 hrs by MTT assay; type: functional, cell-based; conditions: MDA-MB-468, 48 h
[7] = Terminal half life in male Sprague-Dawley rat at 3.5 mg/kg, iv by LC-MS/MS analysis; type: ADME, organism-based; conditions: in vivo
[8] = Cmax in male Sprague-Dawley rat at 3.5 mg/kg, iv by LC-MS/MS analysis; type: ADME, organism-based; conditions: in vivo
[9] = molecular target: Protein-arginine deiminase type-4 (Homo sapiens, UniProt Q9UM07); assay: Inhibition of PAD4 (unknown origin) using Nalpha-benzoyl-L-arginine ethyl ester as substrate preincubated for 60 mins followed by substrate addition and measured after 90 mins by colorimetric analysis
Chain of Protein-arginine deiminase type-4 (Q9UM07 whole entry): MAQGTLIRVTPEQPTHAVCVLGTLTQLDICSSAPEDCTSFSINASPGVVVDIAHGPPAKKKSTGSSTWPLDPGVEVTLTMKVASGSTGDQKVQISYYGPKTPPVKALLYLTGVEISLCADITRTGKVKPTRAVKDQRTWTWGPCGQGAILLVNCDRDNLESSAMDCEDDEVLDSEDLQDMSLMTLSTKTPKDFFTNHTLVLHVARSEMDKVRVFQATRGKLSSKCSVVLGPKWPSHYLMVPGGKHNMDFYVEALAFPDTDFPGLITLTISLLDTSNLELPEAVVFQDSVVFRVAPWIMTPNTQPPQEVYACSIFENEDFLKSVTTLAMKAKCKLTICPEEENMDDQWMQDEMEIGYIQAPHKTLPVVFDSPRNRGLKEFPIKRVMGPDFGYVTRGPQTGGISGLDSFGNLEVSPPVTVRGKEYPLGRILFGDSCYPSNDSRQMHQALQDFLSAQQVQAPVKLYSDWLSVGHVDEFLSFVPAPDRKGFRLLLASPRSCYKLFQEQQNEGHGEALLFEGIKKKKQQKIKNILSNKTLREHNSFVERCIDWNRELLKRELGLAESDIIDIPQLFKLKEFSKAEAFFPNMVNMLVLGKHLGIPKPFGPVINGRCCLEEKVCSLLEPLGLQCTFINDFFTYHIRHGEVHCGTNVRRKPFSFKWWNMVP

[10] = Cytotoxicity against human MCF-10A cells assessed as inhibition of cell growth incubated for 48 hrs by MTT assay; type: toxicity, cell-based
[11] = Tmax in male Sprague-Dawley rat at 3.5 mg/kg, iv by LC-MS/MS analysis; type: ADME, organism-based; conditions: in vivo
[12] = molecular target: Protein-arginine deiminase type-4 (Mus musculus) (UniProt Q9Z183); assay: Inhibition of PAD4 in BALB/c mouse bone marrow neutrophils assessed as reduction in histone H3 citrullination at 2 uM preincubated for 2 hrs followed by calcium ionophore A23187 addition and measured after 2 hrs by Hoechst 33342/Ly6G staining based laser confocal microscopic analysis; conditions: Neutrophil, time 4.0 hrs
Chain of Protein-arginine deiminase type-4 (Mus musculus) (Q9Z183 whole entry): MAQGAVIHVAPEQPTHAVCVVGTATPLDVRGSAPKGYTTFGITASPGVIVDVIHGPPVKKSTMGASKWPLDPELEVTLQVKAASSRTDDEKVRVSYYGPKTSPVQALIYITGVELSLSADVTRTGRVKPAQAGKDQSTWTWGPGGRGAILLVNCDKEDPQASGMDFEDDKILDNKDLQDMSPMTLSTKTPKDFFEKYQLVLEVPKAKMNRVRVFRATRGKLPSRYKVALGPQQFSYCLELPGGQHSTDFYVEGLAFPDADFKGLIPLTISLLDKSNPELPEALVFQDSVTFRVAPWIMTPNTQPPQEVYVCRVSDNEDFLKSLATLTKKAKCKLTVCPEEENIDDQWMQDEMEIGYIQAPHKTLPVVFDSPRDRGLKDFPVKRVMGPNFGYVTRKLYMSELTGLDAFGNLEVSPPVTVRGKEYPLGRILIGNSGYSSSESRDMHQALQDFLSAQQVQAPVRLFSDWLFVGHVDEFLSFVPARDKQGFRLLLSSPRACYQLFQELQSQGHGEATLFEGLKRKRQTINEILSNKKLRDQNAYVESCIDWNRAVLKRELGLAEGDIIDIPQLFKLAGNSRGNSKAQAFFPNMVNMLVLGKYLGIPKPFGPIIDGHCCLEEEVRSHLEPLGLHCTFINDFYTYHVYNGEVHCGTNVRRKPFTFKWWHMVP

[13] = Toxicity in female BALB/c mouse implanted with mouse orthotopic 4T1-Luc cells assessed as reduction in liver weight at 10 mg/kg, iv administered via tail vein every 2 days for 9 times for 17 days; type: organism-based; conditions: in vivo, 408 h, time 17 day
[14] = molecular target: Protein-arginine deiminase type-4 (Mus musculus) (UniProt Q9Z183); assay: Inhibition of PAD4 in BALB/c mouse bone marrow neutrophils assessed as reduction in neutrophil extracellular traps formation at 2 uM preincubated for 2 hrs followed by calcium ionophore A23187 addition and measured after 2 hrs by Hoechst 33342/Ly6G staining based laser confocal microscopic analysis; type: tissue-based; conditions: time 4.0 hrs
[15] = Antitumor activity against mouse orthotopic 4T1-Luc cells implanted in female BALB/c mouse assessed as tumor growth inhibition at 10 mg/kg, iv administered via tail vein every 2 days for 9 times for 17 days and measured every 2 days relative to control; type: functional; conditions: 408 h, time 17 day, read-out: TGI
[16] = test system: Mus musculus; assay: In vivo inhibition of PAD4 in female BALB/c mouse implanted with mouse orthotopic 4T1-Luc cells assessed as inhibition of histone H3 citrullination in tumor at 10 mg/kg, iv administered via tail vein every 2 days for 9 times for 17 days by immunohistochemical staining based analysis; type: functional, organism-based; conditions: time 17.0 day
[17] = Toxicity in female BALB/c mouse implanted with mouse orthotopic 4T1-Luc cells assessed as reduction in kidney weight at 10 mg/kg, iv administered via tail vein every 2 days for 9 times for 17 days; type: organism-based; conditions: in vivo, 408 h, time 17 day
[18] = test system: Neutrophil; assay: In vivo inhibition of PAD4 in female BALB/c mouse implanted with mouse orthotopic 4T1-Luc cells assessed as inhibition of neutrophil extracellular traps formation in tumor at 10 mg/kg, iv administered via tail vein every 2 days for 9 times for 17 days by immunohistochemical staining based analysis; type: functional, organism-based; conditions: time 17.0 day
[19] = AUC (0 to t) in male Sprague-Dawley rat at 3.5 mg/kg, iv by LC-MS/MS analysis; type: ADME, organism-based; conditions: in vivo
[20] = Toxicity in female BALB/c mouse implanted with mouse orthotopic 4T1-Luc cells assessed as reduction in body weight at 1.16 mg/kg, iv administered via tail vein every 2 days for 9 times for 17 days and measured every 2 days; type: organism-based; conditions: in vivo, 408 h, time 17 day
[21] = Antitumor activity against mouse orthotopic 4T1-Luc cells implanted in female BALB/c mouse assessed as tumor growth inhibition at 1.16 mg/kg, iv administered via tail vein every 2 days for 9 times for 17 days and measured every 2 days relative to control; type: functional; conditions: 408 h, time 17 day, read-out: TGI

## N=C(CCl)NCCCC1NC(=O)N(Cc2cccc(-c3ccccc3Cl)c2)C1=O (stereo unspecified)
[1]
  Ratio: 15600 min⁻¹ M⁻¹

## CN(C)c1ccc2cc(C(=O)N[C@@H](CCCNC(=N)CCl)C(=O)NCc3ccccc3)ccc2c1
[2]
  IC50: 7.34 µM
[3]
  AUC: 17214.17 ng·h/mL
[4]
  IC50: 5.28 µM
[5]
  Activity: Non-Toxic
[6]
  IC50: 5.16 µM
[7]
  beta t1/2: 7.8 min
[8]
  Cmax: 251.2 ng/mL
[9]
  IC50: 3.54 µM
[10]
  IC50 at 48 h: 4.3 µM
[11]
  Tmax: 4.8 min
[12]
  inhibition: Active
[13]
  Activity: Toxic
[14]
  inhibition: Active
[15]
  inhibition in vivo at 10 mg/kg: 36.2%
[16]
  inhibition: Active
[17]
  Activity: Toxic
[18]
  inhibition: Active
[19]
  AUC(0-t): 14.9 ng·h/mL

## N=C(CCl)NCCC[C@H](NC(=O)c1cc2c([nH]c3ccccc32)c(-c2cc3ccccc3cn2)n1)C(=O)NCc1ccccc1
[2]
  IC50: 1.48 µM
[4]
  IC50: > 10 µM
[6]
  IC50: 4.26 µM
[9]
  IC50: 24.1 µM
[10]
  IC50 at 48 h: 4.02 µM

## N=C(CCl)NCCC[C@H](NC(=O)c1cc2c([nH]c3ccccc32)c(C2CCCCC2)n1)C(=O)NCc1ccccc1
[2]
  IC50: 5.48 µM
[4]
  IC50: 2.32 µM
[6]
  IC50: 2.89 µM
[9]
  IC50: 1.11 µM
[10]
  IC50 at 48 h: 2.76 µM

## CC(C)c1ccc(-c2nc(C(=O)N[C@@H](CCCNC(=N)CCl)C(=O)NCc3ccccc3)cc3c2[nH]c2ccccc23)cc1
[2]
  IC50: 4.28 µM
[4]
  IC50: > 10 µM
[6]
  IC50: 2.95 µM
[9]
  IC50: 6.89 µM
[10]
  IC50 at 48 h: 3.52 µM

## COC(Cc1nc(C(=O)N[C@@H](CCCNC(=N)CCl)C(=O)NCc2ccccc2)cc2c1[nH]c1ccccc12)OC
[2]
  IC50: 19.8 µM
[4]
  IC50: 1 µM
[6]
  IC50: 7.99 µM
[9]
  IC50: 0.96 µM
[10]
  IC50 at 48 h: 11 µM

## COc1ccc(-c2nc(C(=O)N[C@@H](CCCNC(=N)CCl)C(=O)NCc3ccccc3)cc3c2[nH]c2ccccc23)cc1OC
[2]
  IC50: 11.4 µM
[4]
  IC50: 4.59 µM
[6]
  IC50: 5.93 µM
[9]
  IC50: 1.52 µM
[10]
  IC50 at 48 h: 11.1 µM

## COc1cccc2c1C(=O)c1c(O)c3c(c(O)c1C2=O)C[C@@](O)(C(=O)CO)C[C@@H]3O[C@H]1C[C@H](N)[C@H](O)[C@H](C)O1 [DOXORUBICIN HYDROCHLORIDE]
[20]
  Activity: Non-Toxic
[21]
  inhibition in vivo at 1.16 mg/kg: 54.6%

## N=C(CCl)NCCC[C@H](NC(=O)c1ccc2nc[nH]c2c1)C(=O)NCc1ccccc1
[2]
  IC50: > 100 µM
[4]
  IC50: 2.08 µM
[6]
  IC50: > 100 µM
[9]
  IC50: 1.15 µM
[10]
  IC50 at 48 h: > 100 µM

## N=C(CCl)NCCC[C@H](NC(=O)c1ccc2c(c1)NCCN2)C(=O)NCc1ccccc1
[2]
  IC50: > 100 µM
[4]
  IC50: 1.93 µM
[6]
  IC50: > 100 µM
[9]
  IC50: 2.3 µM
[10]
  IC50 at 48 h: > 100 µM

## N=C(CCl)NCCC[C@H](NC(=O)c1cc2c([nH]c3ccccc32)c(C2CC2)n1)C(=O)NCc1ccccc1
[2]
  IC50: 12.2 µM
[4]
  IC50: 1.27 µM
[6]
  IC50: 4.88 µM
[9]
  IC50: 0.62 µM
[10]
  IC50 at 48 h: 4.37 µM

## CCCCCCCCCc1nc(C(=O)N[C@@H](CCCNC(=N)CCl)C(=O)NCc2ccccc2)cc2c1[nH]c1ccccc12
[2]
  IC50: 12.2 µM
[4]
  IC50: 16.8 µM
[6]
  IC50: 7.2 µM
[9]
  IC50: 14 µM
[10]
  IC50 at 48 h: 14.3 µM
